Data taken from ChEMBL document CHEMBL2069259, “Preclinical strategy to reduce clinical hepatotoxicity using in vitro bioactivation data for >200 compounds” (Chem Res Toxicol, 2012).
Starred links: 1 amine or outer side, 2 acyl side, 3 side chain; linkers in the order of their positions; H or OH if unused. Positions of bridges follow the written chain, without caps; N, C: chain ends. Non-standard residues stand in square brackets, D forms with d. Residues, ends and D or L forms follow the SMILES beside them. Chains are numbered I, II in the order given. Actinocin(9to1) = Cc1c2oc3c(C)ccc(C(=O)[*:1])c3nc-2c(C(=O)[*:2])c(N)c1=O; NMeV = CN[C@H](C(=O)O)C(C)C; Sar = CNCC(=O)O

Experiments:
CYP3A4 [1] = target: T1, CYP3A4 (Homo sapiens, UniProt P08684); experiment: Inhibition of human CYP3A4 assessed as ratio of IC50 in absence of NADPH to IC50 for presence of NADPH using 7-benzyloxyquinoline as substrate after 30 mins
T1 sequence (P08684 whole entry): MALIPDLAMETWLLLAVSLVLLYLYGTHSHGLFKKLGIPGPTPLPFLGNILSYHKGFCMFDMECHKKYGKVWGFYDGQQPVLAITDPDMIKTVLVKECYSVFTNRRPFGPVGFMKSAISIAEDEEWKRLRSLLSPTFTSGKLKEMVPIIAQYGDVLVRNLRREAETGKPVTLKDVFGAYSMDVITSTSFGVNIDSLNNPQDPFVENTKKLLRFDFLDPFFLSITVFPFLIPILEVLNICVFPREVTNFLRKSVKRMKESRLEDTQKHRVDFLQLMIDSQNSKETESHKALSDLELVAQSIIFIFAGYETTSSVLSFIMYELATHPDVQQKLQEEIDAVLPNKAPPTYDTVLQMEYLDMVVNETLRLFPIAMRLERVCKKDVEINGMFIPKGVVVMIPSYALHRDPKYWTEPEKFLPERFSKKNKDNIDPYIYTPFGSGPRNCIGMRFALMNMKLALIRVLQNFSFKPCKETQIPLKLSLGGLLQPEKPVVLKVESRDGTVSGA

CYP3A4 [2] = target: T1, CYP3A4; experiment: Inhibition of human CYP3A4 assessed as ratio of IC50 in absence of NADPH to IC50 for presence of NADPH using diethoxyfluorescein as substrate after 30 mins
CYP2C9 = CYP2C9 (Homo sapiens, UniProt P11712); experiment: Inhibition of human CYP2C9 assessed as ratio of IC50 in absence of NADPH to IC50 for presence of NADPH using 7-methoxy-4-trifluoromethylcoumarin-3-acetic acid as substrate after 30 mins
Chain of CYP2C9 (P11712 whole entry): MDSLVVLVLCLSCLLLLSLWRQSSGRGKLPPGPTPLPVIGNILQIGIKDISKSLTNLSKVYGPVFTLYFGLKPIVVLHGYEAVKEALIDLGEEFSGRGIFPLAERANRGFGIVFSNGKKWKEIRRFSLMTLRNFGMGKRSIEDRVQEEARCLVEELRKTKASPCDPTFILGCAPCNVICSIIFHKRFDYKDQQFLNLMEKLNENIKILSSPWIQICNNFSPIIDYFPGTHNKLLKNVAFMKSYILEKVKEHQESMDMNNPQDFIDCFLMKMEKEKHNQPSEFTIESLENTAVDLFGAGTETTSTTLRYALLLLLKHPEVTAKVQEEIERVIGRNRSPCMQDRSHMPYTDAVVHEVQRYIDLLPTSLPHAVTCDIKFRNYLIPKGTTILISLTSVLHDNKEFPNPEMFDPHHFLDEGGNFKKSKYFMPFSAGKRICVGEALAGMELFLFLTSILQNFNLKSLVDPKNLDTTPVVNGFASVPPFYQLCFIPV

CYP2C19 = CYP2C19 (Homo sapiens, UniProt P33261); experiment: Inhibition of human CYP2C19 assessed as ratio of IC50 in absence of NADPH to IC50 for presence of NADPH using 3-butyryl-7-methoxycoumarin as substrate after 30 mins
Chain of CYP2C19 (P33261 whole entry): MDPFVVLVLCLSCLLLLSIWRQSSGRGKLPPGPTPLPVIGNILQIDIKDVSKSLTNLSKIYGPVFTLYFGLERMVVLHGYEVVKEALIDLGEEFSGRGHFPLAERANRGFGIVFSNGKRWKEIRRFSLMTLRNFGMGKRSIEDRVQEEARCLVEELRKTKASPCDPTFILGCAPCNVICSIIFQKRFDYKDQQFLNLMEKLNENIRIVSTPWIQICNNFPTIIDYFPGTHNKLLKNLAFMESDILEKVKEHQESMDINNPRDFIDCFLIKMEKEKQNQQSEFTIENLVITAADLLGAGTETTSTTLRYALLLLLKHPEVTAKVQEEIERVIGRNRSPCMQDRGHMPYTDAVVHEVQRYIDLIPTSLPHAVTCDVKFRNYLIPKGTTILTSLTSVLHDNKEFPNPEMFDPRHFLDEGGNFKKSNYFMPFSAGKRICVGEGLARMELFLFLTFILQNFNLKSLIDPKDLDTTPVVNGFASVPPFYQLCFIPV

Liver microsomes [3] = experiment: Metabolic stability in human liver microsomes assessed as GSH adduct formation at 100 uM after 90 mins by HPLC-MS analysis; details: 1.5 h
Liver microsomes [4] = experiment: Metabolic stability in human liver microsomes assessed as high signal/noise ratio (S/N of >100) by measuring GSH adduct formation at 100 uM after 90 mins by HPLC-MS analysis; details: 1.5 h
CYP1A2 = target: T2, CYP1A2 (Homo sapiens, UniProt P05177); experiment: Inhibition of human CYP1A2 assessed as ratio of IC50 in absence of NADPH to IC50 for presence of NADPH using ethoxyresorufin as substrate after 30 mins
T2 sequence (P05177 whole entry): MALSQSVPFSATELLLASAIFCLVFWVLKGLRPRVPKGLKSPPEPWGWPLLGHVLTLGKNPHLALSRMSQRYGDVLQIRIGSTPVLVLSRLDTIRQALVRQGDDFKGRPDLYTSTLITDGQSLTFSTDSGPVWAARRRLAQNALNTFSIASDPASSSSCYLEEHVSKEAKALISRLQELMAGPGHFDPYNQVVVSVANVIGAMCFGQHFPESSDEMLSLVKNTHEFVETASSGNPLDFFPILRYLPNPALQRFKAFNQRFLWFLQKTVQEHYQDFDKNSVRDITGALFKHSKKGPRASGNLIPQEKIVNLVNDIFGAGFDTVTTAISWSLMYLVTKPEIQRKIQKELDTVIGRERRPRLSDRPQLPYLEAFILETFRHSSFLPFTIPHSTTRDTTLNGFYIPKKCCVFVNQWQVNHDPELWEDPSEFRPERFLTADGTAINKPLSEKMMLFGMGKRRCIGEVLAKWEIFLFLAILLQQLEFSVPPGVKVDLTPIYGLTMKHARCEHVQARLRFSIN

Liver microsomes [5] = details: human, 1.5 h, 100 µM
CYP2D6 = CYP2D6 (Homo sapiens, UniProt P10635); experiment: Inhibition of human CYP2D6 assessed as ratio of IC50 in absence of NADPH to IC50 for presence of NADPH using 4-methylaminoethyl-7-methoxycoumarin as substrate after 30 mins
Chain of CYP2D6 (P10635 whole entry): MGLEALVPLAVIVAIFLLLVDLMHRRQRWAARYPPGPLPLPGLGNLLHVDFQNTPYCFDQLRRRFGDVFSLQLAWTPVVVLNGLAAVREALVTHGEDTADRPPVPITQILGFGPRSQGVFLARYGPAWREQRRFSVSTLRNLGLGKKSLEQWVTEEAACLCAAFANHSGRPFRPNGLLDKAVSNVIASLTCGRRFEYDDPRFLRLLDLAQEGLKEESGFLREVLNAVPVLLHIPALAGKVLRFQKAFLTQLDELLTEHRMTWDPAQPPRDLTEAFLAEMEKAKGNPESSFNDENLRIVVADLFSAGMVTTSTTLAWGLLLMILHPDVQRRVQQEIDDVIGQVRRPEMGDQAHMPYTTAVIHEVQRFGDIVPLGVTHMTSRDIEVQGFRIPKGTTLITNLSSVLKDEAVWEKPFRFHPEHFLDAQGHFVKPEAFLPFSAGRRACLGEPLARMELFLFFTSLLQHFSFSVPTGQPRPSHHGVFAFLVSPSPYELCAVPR

[6] = probe 7-methoxy-4-trifluoromethylcoumarin-3-acetic acid
[7] = probe 3-butyryl-7-methoxycoumarin

| SMILES | IC50 shift at 0.5 h (CYP3A4 [2]) | IC50 shift at 0.5 h (CYP2C9) | IC50 shift at 0.5 h (CYP2C19) | Stability (Liver microsomes [3]) | Stability (Liver microsomes [4]) | IC50 shift at 0.5 h (CYP1A2) | IC50 shift at 0.5 h (CYP2C9; [6]) | IC50 shift at 0.5 h (CYP2C19; [7]) | further results |
| --- | --- | --- | --- | --- | --- | --- | --- | --- | --- |
| CNCCC(Oc1ccc(C(F)(F)F)cc1)c1ccccc1 (centres undefined) [FLUOXETINE] | 2 | 2 | > 5 | Stable | – | – | – | – | IC50 shift at 0.5 h (CYP3A4 [1]): > 5 |
| CCN(CC)CC#CCOC(=O)C(O)(c1ccccc1)C1CCCCC1 (centres undefined) [OXYBUTYNIN] | – | < 2 | > 5 | – | Unstable | > 2 | – | – | – |
| Cc1c2oc3c(C)ccc(C(=O)N[C@@H]4C(=O)N[C@H](C(C)C)C(=O)N5CCC[C@H]5C(=O)N(C)CC(=O)N(C)[C@@H](C(C)C)C(=O)O[C@@H]4C)c3nc-2c(C(=O)N[C@@H]2C(=O)N[C@H](C(C)C)C(=O)N3CCC[C@H]3C(=O)N(C)CC(=O)N(C)[C@@H](C(C)C)C(=O)O[C@@H]2C)c(N)c1=O [DACTINOMYCIN] (I: T[dV]P[Sar][NMeV] / II: T[dV]P[Sar][NMeV]; ester I:1-I:C, II:1-II:C; linker I:N-II:N via Actinocin(9to1)) | – | – | – | Stable | – | – | 2 | < 2 | IC50 shift at 0.5 h (CYP3A4 [1]; probe 7-benzyloxyquinoline): 2 |
| NNCCc1ccccc1 [PHENELZINE] | 2 | 2 | > 5 | – | – | 2 | – | – | Stability (Liver microsomes [5]): Unstable; IC50 shift at 0.5 h (CYP2D6): > 5 |
| CC(COc1ccccc1)N(CCCl)Cc1ccccc1 (centres undefined) [PHENOXYBENZAMINE] | – | – | – | – | Unstable | – | < 2 | 2 | IC50 shift at 0.5 h (CYP1A2; probe ethoxyresorufin): 2; IC50 shift at 0.5 h (CYP3A4 [2]; probe diethoxyfluorescein): 2 |
